{
  "source": "the NIST ThermoML archive (doi:10.1021/je700152c)",
  "assay": "molar heat capacity at constant pressure",
  "details": "101.33 kPa",
  "note": "Numbers after ± are expanded uncertainties.",
  "data": [
    {"smiles": "CCCCn1cc[n+](C)c1.Cc1ccc(S(=O)(=O)[O-])cc1", "note": "[1-butyl-3-methylimidazolium tosylate]", "values": [
      {"measurement": "molar heat capacity at constant pressure", "setting": "5 K, Crystal 2", "value": "2.54 ± 0.13", "unit": "J/K/mol"},
      {"measurement": "molar heat capacity at constant pressure", "setting": "10 K, Crystal 2", "value": "11.91 ± 0.42", "unit": "J/K/mol"},
      {"measurement": "molar heat capacity at constant pressure", "setting": "15 K, Crystal 2", "value": "24.31 ± 0.72", "unit": "J/K/mol"},
      {"measurement": "molar heat capacity at constant pressure", "setting": "20 K, Crystal 2", "value": "37.67 ± 0.95", "unit": "J/K/mol"},
      {"measurement": "molar heat capacity at constant pressure", "setting": "25 K, Crystal 2", "value": "51.27 ± 1.1", "unit": "J/K/mol"},
      {"measurement": "molar heat capacity at constant pressure", "setting": "30 K, Crystal 2", "value": "64.46 ± 0.85", "unit": "J/K/mol"},
      {"measurement": "molar heat capacity at constant pressure", "setting": "35 K, Crystal 2", "value": "76.73 ± 0.96", "unit": "J/K/mol"},
      {"measurement": "molar heat capacity at constant pressure", "setting": "40 K, Crystal 2", "value": "87.97 ± 1.1", "unit": "J/K/mol"},
      {"measurement": "molar heat capacity at constant pressure", "setting": "45 K, Crystal 2", "value": "98.44 ± 1.2", "unit": "J/K/mol"},
      {"measurement": "molar heat capacity at constant pressure", "setting": "50 K, Crystal 2", "value": "108.3 ± 1.2", "unit": "J/K/mol"},
      {"measurement": "molar heat capacity at constant pressure", "setting": "60 K, Crystal 2", "value": "125.9 ± 1.5", "unit": "J/K/mol"},
      {"measurement": "molar heat capacity at constant pressure", "setting": "70 K, Crystal 2", "value": "141.6 ± 1.6", "unit": "J/K/mol"},
      {"measurement": "molar heat capacity at constant pressure", "setting": "80 K, Crystal 2", "value": "156 ± 1.7", "unit": "J/K/mol"},
      {"measurement": "molar heat capacity at constant pressure", "setting": "90 K, Crystal 2", "value": "169.3 ± 1.7", "unit": "J/K/mol"},
      {"measurement": "molar heat capacity at constant pressure", "setting": "100 K, Crystal 2", "value": "181.9 ± 1.8", "unit": "J/K/mol"},
      {"measurement": "molar heat capacity at constant pressure", "setting": "105 K, Crystal 2", "value": "188.1 ± 1.9", "unit": "J/K/mol"},
      {"measurement": "molar heat capacity at constant pressure", "setting": "110 K, Crystal 2", "value": "194.1 ± 1.9", "unit": "J/K/mol"},
      {"measurement": "molar heat capacity at constant pressure", "setting": "120 K, Crystal 2", "value": "206 ± 2.1", "unit": "J/K/mol"},
      {"measurement": "molar heat capacity at constant pressure", "setting": "130 K, Crystal 2", "value": "218 ± 2.2", "unit": "J/K/mol"},
      {"measurement": "molar heat capacity at constant pressure", "setting": "140 K, Crystal 2", "value": "230 ± 2.2", "unit": "J/K/mol"},
      {"measurement": "molar heat capacity at constant pressure", "setting": "150 K, Crystal 2", "value": "241.9 ± 2.3", "unit": "J/K/mol"},
      {"measurement": "molar heat capacity at constant pressure", "setting": "152.77 K, Crystal 1", "value": "238.4 ± 2.3", "unit": "J/K/mol"},
      {"measurement": "molar heat capacity at constant pressure", "setting": "152.77 K, Crystal 2", "value": "245.2 ± 2.3", "unit": "J/K/mol"},
      {"measurement": "molar heat capacity at constant pressure", "setting": "160 K, Crystal 1", "value": "246.2 ± 2.4", "unit": "J/K/mol"},
      {"measurement": "molar heat capacity at constant pressure", "setting": "170 K, Crystal 1", "value": "257 ± 2.5", "unit": "J/K/mol"},
      {"measurement": "molar heat capacity at constant pressure", "setting": "180 K, Crystal 1", "value": "267.8 ± 2.6", "unit": "J/K/mol"},
      {"measurement": "molar heat capacity at constant pressure", "setting": "190 K, Crystal 1", "value": "278.8 ± 2.7", "unit": "J/K/mol"},
      {"measurement": "molar heat capacity at constant pressure", "setting": "200 K, Crystal 1", "value": "289.9 ± 2.7", "unit": "J/K/mol"},
      {"measurement": "molar heat capacity at constant pressure", "setting": "210 K, Crystal 1", "value": "301.5 ± 2.8", "unit": "J/K/mol"},
      {"measurement": "molar heat capacity at constant pressure", "setting": "220 K, Crystal 1", "value": "313.3 ± 2.9", "unit": "J/K/mol"},
      {"measurement": "molar heat capacity at constant pressure", "setting": "230 K, Crystal 1", "value": "335.4 ± 3.1", "unit": "J/K/mol"},
      {"measurement": "molar heat capacity at constant pressure", "setting": "240 K, Crystal 1", "value": "348.3 ± 3.2", "unit": "J/K/mol"},
      {"measurement": "molar heat capacity at constant pressure", "setting": "250 K, Crystal 1", "value": "359.9 ± 3.2", "unit": "J/K/mol"},
      {"measurement": "molar heat capacity at constant pressure", "setting": "260 K, Crystal 1", "value": "371.2 ± 3.4", "unit": "J/K/mol"},
      {"measurement": "molar heat capacity at constant pressure", "setting": "270 K, Crystal 1", "value": "382.3 ± 3.5", "unit": "J/K/mol"},
      {"measurement": "molar heat capacity at constant pressure", "setting": "280 K, Crystal 1", "value": "393.3 ± 3.6", "unit": "J/K/mol"},
      {"measurement": "molar heat capacity at constant pressure", "setting": "290 K, Crystal 1", "value": "404.1 ± 3.7", "unit": "J/K/mol"},
      {"measurement": "molar heat capacity at constant pressure", "setting": "298.15 K, Crystal 1", "value": "412.7 ± 3.7", "unit": "J/K/mol"},
      {"measurement": "molar heat capacity at constant pressure", "setting": "300 K, Crystal 1", "value": "414.6 ± 3.7", "unit": "J/K/mol"},
      {"measurement": "molar heat capacity at constant pressure", "setting": "310 K, Crystal 1", "value": "425 ± 3.8", "unit": "J/K/mol"},
      {"measurement": "molar heat capacity at constant pressure", "setting": "320 K, Crystal 1", "value": "435.3 ± 3.9", "unit": "J/K/mol"},
      {"measurement": "molar heat capacity at constant pressure", "setting": "330 K, Crystal 1", "value": "445.3 ± 4", "unit": "J/K/mol"},
      {"measurement": "molar heat capacity at constant pressure", "setting": "340 K, Crystal 1", "value": "455.1 ± 4.1", "unit": "J/K/mol"},
      {"measurement": "molar heat capacity at constant pressure", "setting": "343.89 K, Crystal 1", "value": "458.7 ± 4.1", "unit": "J/K/mol"},
      {"measurement": "molar heat capacity at constant pressure", "setting": "343.89 K, Liquid", "value": "543.4 ± 4.7", "unit": "J/K/mol"},
      {"measurement": "molar heat capacity at constant pressure", "setting": "350 K, Liquid", "value": "548.4 ± 4.8", "unit": "J/K/mol"},
      {"measurement": "molar heat capacity at constant pressure", "setting": "360 K, Liquid", "value": "556 ± 4.8", "unit": "J/K/mol"},
      {"measurement": "molar heat capacity at constant pressure", "setting": "370 K, Liquid", "value": "563.1 ± 4.9", "unit": "J/K/mol"},
      {"measurement": "molar heat capacity at constant pressure", "setting": "380 K, Liquid", "value": "569.8 ± 5", "unit": "J/K/mol"}
    ]}
  ]
}
